Molecular target: T1, NMDA receptor in erythrocytes (Homo sapiens, UniProt Q05586)
T1 construct: Potassium and calcium fluxes through the NMDA receptor in erythrocytes of healthy donors (C) and patients with sickle cell anemia; endogenous in cells; host or cells: freshly isolated human erythrocytes (HbSS patients and healthy donors)
Assay: Unidirectional K+ (86Rb) and Ca2+ (45Ca) fluxes via the cation channel of the NMDA receptor, radioactive tracer kinetics
Format: cell-based
Details: for NMDA- and PGE2-sensitive increase in fluxes: stimulated by NMDA (100 μM) or prostaglandine E2 (2 μM), blocker added
Experimental: FIGS. 2A and 2B: Potassium and calcium fluxes through the NMDA receptor in erythrocytes of healthy donors (C) and patients with sickle cell anemia (H). 2A: Unidirectional K^+ influx measured in chloride-free Na-methane sulfate medium in the presence of 100 μM ouabain, the inhibitor of […]. Conditions corresponding to the numbers at the X axis: (1) control; (2) 50 μM memantine chloride (Sigma-Aldhdge); (3) 100 μM NMDA; (4) NMDA+memantine chloride; (5) 2 μM prostaglandine E2 (PGE2); (6) PGE2+memantine chloride. * denotes p<0.05 compared to the corresponding values in healthy donor's erythrocytes, # stands for p<0.05 compared to the corresponding non-treated control. Data are means±SEM for 6-7 individuals. 2B: Unidirectional Ca^2+ influx in erythrocytes of a single HbSS patient measured on 3 different occasions and in three healthy donors. Conditions indicated in numbers at the X axis are: (1) non-treated control; (2) 100 μM NMDA; (3) 100 μM NMDA and 50 μM MK-801. * denotes p<0.05 compared to the corresponding healthy donors' samples.
The following experiments were conducted using fresh-isolated human erythrocytes of HbSS patients and healthy subjects.
Fluxes via the nonselective cation channel of the NMDA receptor were assessed using radioactive tracer kinetics. 86Rb was used as a radioactive tracer for K^+ and 45Ca as a tracer for Ca^2+. Fluxes through the red cell membrane were measures in the medium containing (mM) 145 Na-methane sulfate, 4 K-gluconate, 1 Ca-gluconate, 10 sucrose, 10 glucose and 10 HEPES-Tris (pH 7.4) in the presence of 100 μM L-arginine and 100 μM ouabain. Details of the flux measurement may be found elsewhere (e.g. Bogdanova et al., J Membr Biol. 2003; 195(1):33-42).

| Structure (SMILES) | NMDA- and PGE2-sensitive increase in fluxes | further results |
| --- | --- | --- |
| C[C@]12N[C@H](Cc3ccccc31)c1ccccc12 [MK-801, Dizocilpine] | could be blocked |  |
| CN[C@H](CC(=O)O)C(=O)O [NMDA, N-methyl D-aspartate] |  | Fluxes of both cations (K+ and Ca2+) (agonist 100 μM): further stimulated |
| CCCCC[C@H](O)/C=C/[C@H]1[C@H](O)CC(=O)[C@@H]1C/C=C\CCCC(=O)O [prostaglandine E2] |  | Fluxes of both cations (K+ and Ca2+) (agonist 2 μM): further stimulated |
| CC12CC3CC(C)(C1)CC(N)(C3)C2 [memantine, Memantine] | could be blocked |  |

— patent publication US8680042B2, “Methods of treating sickle cell anemia-related conditions with MK-801 or memantine” (Universität Zürich Prorektorat MNW, priority 2009, dated 2014)
